Laboratory results published in patent US9809592B2, “Isopropyl triazolo pyridine compounds” (Eli Lilly and Company, priority 2014, dated 2017).

Key:
[1] = target: T1, PPARα (Homo sapiens, UniProt Q07869); assay: Ga14 PPARα reporter functional assay in CV1 cells; type: cell-based; conditions: 24 hours incubation, luciferase
T1 construct: expressed in transfected cells; host or cells: CV1 (African green monkey kidney)
T1 sequence (Q07869 239-466 limits assumed): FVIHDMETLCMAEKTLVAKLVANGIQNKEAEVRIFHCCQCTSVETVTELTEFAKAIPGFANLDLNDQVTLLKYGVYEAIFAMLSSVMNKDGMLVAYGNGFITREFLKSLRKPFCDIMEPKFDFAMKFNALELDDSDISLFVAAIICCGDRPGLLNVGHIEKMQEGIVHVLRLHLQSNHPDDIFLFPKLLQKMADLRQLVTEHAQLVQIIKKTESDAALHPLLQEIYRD
Excerpt: (§1) Because GPR40 is known to be activated by ligands to PPARγ, exemplified compounds are examined in Ga14 PPARα, Ga14 PPARδ, and PPARγ reporter assays to determine the selectivity of exemplified compounds. CV1 cells, which are derived from the renal tissue of an African green monkey, are transfected with various receptor and reporter plasmids using Fugene. For the Ga14 PPARα and PPARδ assays, a reporter plasmid containing five tandem copies of the yeast transcription protein Ga14 response element, cloned upstream of a firefly luciferase gene driven by the major late promoter of adenovirus, is transfected together with a Simian Virus 40 (SV40) driven plasmid constitutively expressing a hybrid protein containing the Ga14 DNA binding domain (DBD), and either the PPARα or PPARδ ligand binding domain. […] After 24 hours incubation with compounds, cells are lysed and luciferase activity is determined as a measure of receptor activation by luminescence. […] The maximum percent stimulation is determined versus maximum stimulation obtained with 10 μM of an appropriated PPAR agonist reference compound, 2-methyl-2-(4-{2-methyl-3-[2-(phenylcarbonyl)-4-(trifluoromethoxy)phenoxy]propoxy}phenoxy)propanoic acid. […]

[2] = target: T2, PPARδ (Homo sapiens, UniProt Q03181); assay: Ga14 PPARδ reporter functional assay in CV1 cells; type: cell-based; conditions: 24 hours incubation, luciferase
T2 construct: expressed in transfected cells; host or cells: CV1 (African green monkey kidney)
T2 sequence (Q03181 211-439 limits assumed): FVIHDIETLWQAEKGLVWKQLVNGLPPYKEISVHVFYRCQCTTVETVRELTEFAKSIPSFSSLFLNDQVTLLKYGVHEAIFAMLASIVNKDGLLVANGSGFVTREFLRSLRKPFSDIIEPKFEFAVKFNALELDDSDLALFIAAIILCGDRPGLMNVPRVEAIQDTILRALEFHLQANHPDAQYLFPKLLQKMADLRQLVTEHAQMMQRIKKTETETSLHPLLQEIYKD
Excerpt: as §1

[3] = target: T3, PPARγ (Homo sapiens, UniProt P37231); assay: PPARγ reporter functional assay in CV1 cells; type: cell-based; conditions: PPARγ and RXRα, 24 hours incubation, luciferase
T3 construct: expressed in transfected cells; host or cells: CV1 (African green monkey kidney)
T3 sequence (P37231 1-505): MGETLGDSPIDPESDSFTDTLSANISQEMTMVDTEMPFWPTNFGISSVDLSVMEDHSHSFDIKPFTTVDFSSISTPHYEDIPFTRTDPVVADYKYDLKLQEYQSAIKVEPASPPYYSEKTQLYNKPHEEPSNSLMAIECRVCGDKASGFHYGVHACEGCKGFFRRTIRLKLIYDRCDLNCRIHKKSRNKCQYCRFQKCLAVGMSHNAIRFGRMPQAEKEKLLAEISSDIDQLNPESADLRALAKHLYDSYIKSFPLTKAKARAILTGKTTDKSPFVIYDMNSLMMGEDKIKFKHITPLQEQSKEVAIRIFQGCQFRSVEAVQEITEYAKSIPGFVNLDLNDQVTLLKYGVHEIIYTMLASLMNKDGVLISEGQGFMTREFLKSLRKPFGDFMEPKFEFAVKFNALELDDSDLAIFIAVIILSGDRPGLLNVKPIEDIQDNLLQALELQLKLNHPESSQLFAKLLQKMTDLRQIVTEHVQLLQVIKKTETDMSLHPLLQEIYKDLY
T3 sequence (P19793 1-462 partner): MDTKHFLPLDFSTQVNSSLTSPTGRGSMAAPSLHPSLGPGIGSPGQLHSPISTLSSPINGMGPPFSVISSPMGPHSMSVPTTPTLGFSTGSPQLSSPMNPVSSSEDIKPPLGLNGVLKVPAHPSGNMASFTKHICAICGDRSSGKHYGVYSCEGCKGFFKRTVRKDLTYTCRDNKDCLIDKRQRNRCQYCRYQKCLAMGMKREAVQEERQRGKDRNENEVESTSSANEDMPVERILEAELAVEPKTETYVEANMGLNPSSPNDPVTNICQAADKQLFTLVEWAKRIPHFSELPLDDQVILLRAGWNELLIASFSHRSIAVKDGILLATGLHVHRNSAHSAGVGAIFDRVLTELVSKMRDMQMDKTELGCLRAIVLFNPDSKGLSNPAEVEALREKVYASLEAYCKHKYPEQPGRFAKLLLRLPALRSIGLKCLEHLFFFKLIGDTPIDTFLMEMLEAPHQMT
Excerpt: as §1

[4] = test system: PPAR; assay: PPAR α, δ, and γ functional assays (overall statement); type: cell-based; conditions: PPARα, PPARδ and PPARγ reporter assays; efficacy of <20% is considered negative
Excerpt: as §1

[5] = target: T4, hGPR40 (Homo sapiens, UniProt O14842); assay: Calcium Flux Primary Assay (FLIPR); type: cell-based; parameters: expressed in transfected cells; host or cells: HEK293; conditions: mean, SEM
Experimental: HEK293 cells over expressing the human GPR40 cDNA maintained in Dulbecco's modified Eagle's medium with F12 medium in 3:1 ratio supplemented with 10% FBS and 800 μg/ml geneticin at 37° C. and 5% CO2 are employed for the study. Agonist assays are performed using a Calcium 4 Dye assay kit (Molecular Devices) in the presence or absence of 0.1% fatty acid free BSA in the assay buffer (1×HBSS (Hank's Balanced Salt Solution) & 20 mM HEPES (4-(2-hydroxyethyl)-1-piperazineethanesulfonic acid). Receptor activation is measured as an increase in intracellular calcium using the Fluorometric Imaging Plate Reader (FLIPR). Maximum change in fluorescence over the base line is used to determine the agonist response. The EC50 value of the compound is calculated using Excel Fit software (version 4; IDBS) by plotting concentration vs relative fluorescence units (RFUs). […] (Mean±SEM; SEM=standard error of the mean.)
Target sequence in this assay (O14842 whole entry): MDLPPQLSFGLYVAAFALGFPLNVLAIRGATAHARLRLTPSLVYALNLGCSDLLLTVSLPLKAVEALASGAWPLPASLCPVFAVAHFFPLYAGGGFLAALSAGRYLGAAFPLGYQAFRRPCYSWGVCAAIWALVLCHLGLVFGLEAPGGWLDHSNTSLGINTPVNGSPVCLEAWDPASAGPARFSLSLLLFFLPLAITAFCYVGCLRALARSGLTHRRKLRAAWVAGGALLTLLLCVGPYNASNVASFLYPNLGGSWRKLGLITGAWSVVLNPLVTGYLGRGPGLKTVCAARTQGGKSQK

[6] = target: mGPR40 (Mus musculus, UniProt Q76JU9); assay: Mouse beta-arrestin agonist assay with 1% FBS (U205 cells expressing mFFAR1); type: cell-based; conditions: n=3
Sequence of mGPR40 (Q76JU9 whole entry, the tested form may be a part): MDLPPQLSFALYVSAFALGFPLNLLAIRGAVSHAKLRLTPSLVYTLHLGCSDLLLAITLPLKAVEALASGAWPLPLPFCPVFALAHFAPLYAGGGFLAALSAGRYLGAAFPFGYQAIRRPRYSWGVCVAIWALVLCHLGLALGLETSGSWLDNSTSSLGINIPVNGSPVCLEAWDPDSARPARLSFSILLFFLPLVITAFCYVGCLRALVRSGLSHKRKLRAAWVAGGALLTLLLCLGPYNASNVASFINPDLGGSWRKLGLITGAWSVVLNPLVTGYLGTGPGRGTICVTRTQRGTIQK
Sequence of mGPR40 (P32121 whole entry partner, the tested form may be a part): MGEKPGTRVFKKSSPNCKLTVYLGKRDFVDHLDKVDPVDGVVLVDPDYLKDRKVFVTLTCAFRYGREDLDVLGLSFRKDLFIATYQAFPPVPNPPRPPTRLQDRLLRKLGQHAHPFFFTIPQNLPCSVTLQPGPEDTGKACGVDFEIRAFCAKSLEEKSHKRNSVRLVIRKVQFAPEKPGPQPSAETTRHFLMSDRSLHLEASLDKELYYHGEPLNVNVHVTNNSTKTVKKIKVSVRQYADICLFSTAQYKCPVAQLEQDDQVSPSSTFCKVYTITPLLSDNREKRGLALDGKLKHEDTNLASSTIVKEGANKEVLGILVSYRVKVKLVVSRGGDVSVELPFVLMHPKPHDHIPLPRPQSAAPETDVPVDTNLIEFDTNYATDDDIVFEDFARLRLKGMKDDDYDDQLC
Excerpt: (§2) Human embryonic kidney (hEK293)-hFFAR1 cells are purchased from DiscoveRx. Human osteosarcoma (U205) cells expressing mFFAR1 are developed by DiscoveRX. These cells co-express the Prolink (PK)-tagged GPR40 and the Enzyme Acceptor (EA)-tagged beta-arrestin fusion proteins. If activation of the GPR40 stimulates beta-arrestin recruitment, it would force complementation of the beta galactosidase (B-gal) enzyme fragments, forming a B-gal enzyme that generates a chemiluminescent signal using the DiscoveRx PathHunter detection kit. Cells are incubated overnight at 5,000 cells/well in 384 well plates in culture media containing 1% FBS (fetal bovine serum). Serial diluted compounds in DMSO (2× dilutions to generate 20 concentrations) are step down diluted in culture media containing 1% FBS (fetal bovine serum) and added to cells with a final top concentration starting of 100 μM. After addition of compounds, cells are incubated for 90 min at 37° C. in 5% CO2 incubator, and DiscoveRX kit detection reagents are added. Measurement of the chemiluminescent signal is ascertained with the Envision reader, after a 1-hour incubation at room temperature. Data are fit to a 4 parameter-fit logistics to determine EC50 values, % activity is measured versus maximum response to an internal standard GPR40 agonist standard, TAK875, at 1 μM.

[7] = target: T4, hGPR40; assay: Human beta-arrestin agonist assay with 1% FBS (hEK293-hFFAR1 cells); type: cell-based; parameters: host or cells: HEK293 (hEK293-hFFAR1); conditions: n=2
Excerpt: as §2
Target sequence in this assay (O14842 whole entry): as the sequence (O14842 whole entry) above
Target sequence in this assay (P32121 whole entry partner): as the sequence (P32121 whole entry partner, the tested form may be a part) above

[8] = target: T5, Human GPR40 membranes (Homo sapiens, UniProt O14842); assay: Competition binding kinetics, receptor residence time; conditions: 6-8 nM [3H] TAK875; mean, SEM, n=4; read-out: GPR40 Residence time, τ
T5 construct: expressed in transfected cells; host or cells: HEK293 (membranes)
T5 sequence (O14842 whole entry): as the sequence (O14842 whole entry) above
Experimental: The association and dissociation rates of unlabeled compounds are quantified using the method described by Motulsky, H. J. and L. C. Mahan (1984), “The kinetics of competitive radioligand binding predicted by the law of mass action” Mol Pharm 25(1): 1-9. Human GPR40 membranes are incubated at various time points with 6-8 nM [^3H] TAK875 in the absence or presence of 1× Ki, 3× Ki, or 10× Ki unlabeled compound. Separation of bound and free radioligand is performed using rapid-wash filtration onto glass fiber filters and counted in a liquid scintillation counter. Rates are calculated by fitting the data to the kinetics of competitive binding model in GraphPad Prism 6, version 6.03 for Windows, GraphPad Software, La Jolla Calif. USA, www.graphpad.com.

[9] = target: T6, human GPR40 (hGPR40) (Homo sapiens, UniProt O14842); assay: Radioligand competition binding assay with [3H]-TAK-875, HEK293 membranes; conditions: 5 nM [3H]-TAK-875; Cheng-Prusoff; mean, SEM
T6 construct: expressed in transfected cells; host or cells: HEK293 (membranes)
T6 sequence (O14842 whole entry): as above
Excerpt: Competition curves are plotted as the percent specific inhibition versus concentration of compound and analyzed using a four parameter nonlinear regression fit with variable slope. […] See Cheng, Y. and Prusoff, W. H. (1973) “Relationship between the inhibition constant (Ki) and the concentration of inhibitor which causes 50 percent inhibition (IC50) of an enzymatic reaction”, Biochem Pharmacol 22(23):3099-108.

[10] = versus maximum response to TAK875 at 1 μM

- EC50 [1]: > 10000 nM
- EC50 [2]: 4000 nM
- EC50 [3]: 2260 nM
- EC50 ([5]; HEK293 cells over expressing human GPR40): 247 nM
- efficacy ([5]; maximal response compared to natural ligand linoleic acid): 78.7%
- EC50 ([6]; 1% FBS, 90 min, mean, SEM, read-out: mGPR40 b-arrestin EC50): 4.87 nM
- % stimulation max (FA), mGPR40 b-arrestin [6, 10]: 149%
- EC50 ([7]; 1% FBS, 90 min, mean, SEM, read-out: hGPR40 b-arrestin EC50): 30.6 nM
- % stimulation max (FA), hGPR40 b-arrestin [7, 10]: 170%
- residence time [8]: 169 min
- Ki [9]: 15.8 nM
SMILES: CC#C[C@@H](CC(=O)O)c1ccc(OCc2cc(-c3c(C)cc(OC)cc3C)c3nc(C(C)C)nn3c2)cc1 [Example 1, (S)-3-{4-[2-Isopropyl-8-(4-methoxy-2,6-dimethyl-phenyl)-[1,2,4]triazolo[1,5-a]pyridin-6-ylmethoxy]-phenyl}-hex-4-ynoic acid]
- PPAR activity / efficacy (in words) [4]: weak PPAR activity
